This is an account of results in PMC6151550, “Inhibitory Effect of Selaginellins from Selaginella tamariscina (Beauv.) Spring against Cytochrome P450 and Uridine 5′-Diphosphoglucuronosyltransferase Isoforms on Human Liver Microsomes” (Molecules : A Journal of Synthetic Chemistry and Natural …, 2017).

Holding throughout (type): in vitro ADME
One data set deals with T1, CYP2A6 (Homo sapiens, UniProt P11509).
T1 construct: the incubation mixtures containing pooled HLMs (0.25 mg/mL, H2630, Xenotech); tissue Xenotech H2630; host or cells: pooled human liver microsomes
T1 sequence (P11509 1-494): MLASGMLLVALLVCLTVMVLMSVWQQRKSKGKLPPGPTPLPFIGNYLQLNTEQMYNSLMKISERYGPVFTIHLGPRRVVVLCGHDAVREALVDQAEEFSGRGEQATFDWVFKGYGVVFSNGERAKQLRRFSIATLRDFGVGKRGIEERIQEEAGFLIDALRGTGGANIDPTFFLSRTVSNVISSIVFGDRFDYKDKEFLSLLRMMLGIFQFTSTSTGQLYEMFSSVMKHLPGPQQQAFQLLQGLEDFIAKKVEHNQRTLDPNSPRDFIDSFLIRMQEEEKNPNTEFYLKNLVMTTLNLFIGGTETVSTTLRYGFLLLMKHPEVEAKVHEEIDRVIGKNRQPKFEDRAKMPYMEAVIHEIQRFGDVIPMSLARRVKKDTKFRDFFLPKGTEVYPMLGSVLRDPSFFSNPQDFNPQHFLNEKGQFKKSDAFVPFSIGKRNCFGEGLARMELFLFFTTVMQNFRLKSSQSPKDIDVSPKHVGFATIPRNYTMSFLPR
The data set can be described thus: CYP2A6 inhibition (coumarin 7-hydroxylase) in human liver microsomes, substrate cocktail LC-MS/MS. The protocol:
The inhibitory effects of two selaginellins on the metabolism of ten P450 probe substrates were evaluated using previously reported method with minor modification. Phenacetin O-deethylase, coumarin 7-hydroxylase, bupropion 4-hydroxylase, amodiaquine N-deethylase, tolbutamide 4-hydroxylase, omeprazole 5-hydroxylase, dextromethorphan O-demethylase, chlorzoxazone 6-hydroxylase and midazolam 1′-hydroxylase activities were determined as probe activities for CYP1A2, CYP2A6, CYP2B6, CYP2C8, CYP2C9, CYP2C19, CYP2D6, CYP2E1 and […], respectively, using substrate cocktail incubation and tandem mass spectrometry (Table 2). Selaginellins were dissolved in methanol. The final concentrations of organic solvent (methanol) for the cocktail incubation conditions in all experiments were 1.0% (v/v). In brief, the incubation mixtures containing pooled HLMs (0.25 mg/mL, H2630, Xenotech), P450 probe substrate cocktail, and inhibitor (0, 0.5, 2, 5, 20 and 50 μM) were preincubated at 37 °C for 5 min. […] After mixing and centrifugation, aliquots were analyzed by liquid chromatography-tandem mass spectrometry (LC-MS/MS) as previous described. The CYP2J2 inhibitory effects of two selaginellins were also evaluated in pooled HLMs using previously reported method. […]

A further data set deals with T2, CYP2C8 (Homo sapiens, UniProt P10632).
T2 construct: the incubation mixtures containing pooled HLMs (0.25 mg/mL, H2630, Xenotech); tissue Xenotech H2630; host or cells: pooled human liver microsomes
T2 sequence (P10632 1-490): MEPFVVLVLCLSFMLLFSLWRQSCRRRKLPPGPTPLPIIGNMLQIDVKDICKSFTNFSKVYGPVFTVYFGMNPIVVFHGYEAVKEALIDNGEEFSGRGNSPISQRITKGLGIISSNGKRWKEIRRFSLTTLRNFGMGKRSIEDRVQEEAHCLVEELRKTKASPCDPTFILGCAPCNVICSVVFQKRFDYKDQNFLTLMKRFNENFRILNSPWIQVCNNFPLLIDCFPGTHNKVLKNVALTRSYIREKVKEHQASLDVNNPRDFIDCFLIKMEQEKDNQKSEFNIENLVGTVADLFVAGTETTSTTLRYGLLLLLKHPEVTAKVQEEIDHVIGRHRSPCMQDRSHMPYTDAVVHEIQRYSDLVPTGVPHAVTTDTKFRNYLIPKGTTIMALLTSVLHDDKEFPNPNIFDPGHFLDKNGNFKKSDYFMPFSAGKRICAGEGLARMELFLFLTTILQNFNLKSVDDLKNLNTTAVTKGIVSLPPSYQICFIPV
The experiment in a line: CYP2C8 inhibition (amodiaquine N-deethylase) in human liver microsomes, substrate cocktail LC-MS/MS. The protocol:
The inhibitory effects of two selaginellins on the metabolism of ten P450 probe substrates were evaluated using previously reported method with minor modification. Phenacetin O-deethylase, coumarin 7-hydroxylase, bupropion 4-hydroxylase, amodiaquine N-deethylase, tolbutamide 4-hydroxylase, omeprazole 5-hydroxylase, dextromethorphan O-demethylase, chlorzoxazone 6-hydroxylase and midazolam 1′-hydroxylase activities were determined as probe activities for CYP1A2, CYP2A6, CYP2B6, CYP2C8, CYP2C9, CYP2C19, CYP2D6, CYP2E1 and […], respectively, using substrate cocktail incubation and tandem mass spectrometry (Table 2). Selaginellins were dissolved in methanol. The final concentrations of organic solvent (methanol) for the cocktail incubation conditions in all experiments were 1.0% (v/v). In brief, the incubation mixtures containing pooled HLMs (0.25 mg/mL, H2630, Xenotech), P450 probe substrate cocktail, and inhibitor (0, 0.5, 2, 5, 20 and 50 μM) were preincubated at 37 °C for 5 min. The reaction was initiated by adding of the NADPH generating system (3.3 mM G6P, 1.3 mM β-NADP+, 3.3 mM MgCl2, and 1 unit/mL G6PDH) followed by incubation for 15 min at 37 °C. Next, each incubation was stopped by addition of 50 μL ice-cold acetonitrile containing terfenadine (IS). After mixing and centrifugation, aliquots were analyzed by liquid chromatography-tandem mass spectrometry (LC-MS/MS) as previous described. The CYP2J2 inhibitory effects of two selaginellins were also evaluated in pooled HLMs using previously reported method. In brief, the incubation reaction mixtures contained 0.25 mg/mL HLMs, astemizole (1 μM) and inhibitor (0.5–50 μM) in […] phosphate buffer (pH 7.4). The reaction was initiated by the addition of NADPH-generating system and further incubated for 15 min. After reaction termination with cold acetonitrile containing 5 ng/mL terfenadine and centrifugation, aliquots were injected into a liquid chromatography-tandem mass spectrometry system (LC-MS/MS) as described previously (Table 2). All microsomal incubations were performed in triplicate. […]
(Liver microsomes are a subcellular fraction often used to study metabolism.)

The next data set concerns the target T3, UGT1A9 (Homo sapiens, UniProt O60656).
T3 construct: from tissue; host or cells: human liver microsomes
T3 sequence (O60656 26-530): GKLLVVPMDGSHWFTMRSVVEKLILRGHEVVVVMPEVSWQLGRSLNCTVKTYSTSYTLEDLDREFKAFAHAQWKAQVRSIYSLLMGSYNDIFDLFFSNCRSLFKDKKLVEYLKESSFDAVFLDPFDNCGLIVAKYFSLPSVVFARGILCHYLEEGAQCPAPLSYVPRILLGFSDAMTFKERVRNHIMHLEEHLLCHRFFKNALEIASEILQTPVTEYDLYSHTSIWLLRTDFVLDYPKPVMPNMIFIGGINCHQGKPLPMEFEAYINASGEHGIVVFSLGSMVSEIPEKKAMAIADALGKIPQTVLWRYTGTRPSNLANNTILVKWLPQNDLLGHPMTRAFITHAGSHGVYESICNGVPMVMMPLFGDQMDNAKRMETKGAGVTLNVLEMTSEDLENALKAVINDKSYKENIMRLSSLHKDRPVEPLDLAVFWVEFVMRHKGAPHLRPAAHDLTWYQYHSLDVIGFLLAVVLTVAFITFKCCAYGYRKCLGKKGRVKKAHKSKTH
The data set can be described thus: UGT1A9 inhibition (mycophenolic acid glucuronidation) in human liver microsomes, cocktail LC-MS/MS. The protocol: The inhibitory effects of two selaginellins on the metabolism of six UGT probe substrates were evaluated using previously reported method with minor modification. In brief, HLMs (0.25 mg/mL) were activated by incubation in the presence of alamethicin (25 μg/mL) for 15 min on ice. After the addition of UGT isoform-selective substrates and selaginellins (0, 0.5, 2, 5, 20 and 50 μM) the final concentrations of organic solvent (methanol) for the cocktail incubation conditions were 1.0% (v/v). The incubation reaction mixtures were pre-incubated for 5 min. The reaction was initiated by the addition of 5 mM UDPGA and further incubated for 60 min. All reactions were terminated by adding ice-cold acetonitrile containing estrone glucuronide (IS). After mixing and centrifugation, aliquots were injected into a LC-MS/MS as described previously (Table 2). All microsomal incubations were performed in triplicate.
The IC50 values (concentration of the inhibitor causing 50% inhibition of the original enzyme activity) were calculated using WinNonlin software (Pharsight, Mountain View, CA, USA): percentage of control activity = 100 × [1 − (I/(I + IC50))], where I is the inhibitor concentration, and IC50 is the inflection point on the curve.

For orientation: IC50 means the midpoint of a concentration-inhibition curve. Low readings indicate greater potency, high ones weaker potency.

Take `COc1ccc(C(=C2C=CC(=O)C=C2)c2c(-c3ccc(O)cc3)ccc(CO)c2C#Cc2ccc(O)cc2)cc1` [Selaginellin M]: the 50% inhibitory concentration (IC50) is greater than 50 µM against CYP2A6, 0.9 µM against CYP2C8 and 6.5 µM on UGT1A9.
As to `O=C1C=CC(=C(c2ccc(O)cc2)c2c(-c3ccc(O)cc3)ccc(CO)c2C#Cc2ccc(O)cc2)C=C1` [Selaginellin], the figures for the IC50 on CYP2A6, at CYP2C8 and against UGT1A9 were greater than 50 µM, 0.5 µM and 8.7 µM, respectively. In addition, the “inhibitory potential for CYP2C8-mediated amodiaquine O-demethylation (class)” value at CYP2C8 (human liver microsomes, class by Krippendorff's criteria) was “high (high (IC50 < 1 μM))”.
